Values quoted from earlier work as cited in patent US20140171466A1, “PAIN MANAGEMENT IN SICKLE CELL ANEMIA” (priority 2012, published 2014).
“Also recorded” adds a separate entry of the source. Read-outs that look alike come from different tables or passages of the source.

Legend:
[1] = compound on its own
mice = conditions: systemically administered
nonhuman primates = conditions: systemic administration
[2] = in vivo

SMILES: O=C1Cc2ccccc2N1C1CCN(C2CCCCCCC2)CC1 [Compound 3, 1-(1-cyclooctylpiperidin-4-yl)-indolin-2-one]
- reward in the CPP paradigm [1]: not rewarding on its own

SMILES: O=C1NCN(c2ccccc2)C12CCN(C1CCC3CCCc4cccc1c43)CC2 (stereo in doubt) [Compound 7, ((1 S,3aS)-8-(2,3,3a,4,5,6-hexahydro-1H-phenalen-1-yl)-1-phenyl-1,3,8-triaza-spiro[4.5]decan-4-one)]
- morphine conditioned place preference (CPP) (mice): block morphine conditioned place preference (CPP)
- spinal anti-nociceptive action (nonhuman primates): spinal anti-nociceptive action of NOP agonists has been confirmed

SMILES: CC1(N2CCC(n3c([C@@H]4CCCNC4)nc4ccccc43)CC2)CCCCCCC1 [Compound 10, 1-[1-(1-methylcyclooctyl)-4-piperidinyl]-2-[(3R)-3-piperidinyl]-1H-benzimidazole]
- anxiolytic effects [2]: exhibits anxiolytic effects
- effect on memory or locomotion [2]: no effect on memory or locomotion

SMILES: CCCCCCC(C)(C)c1ccc([C@@H]2C[C@H](O)CC[C@H]2CCCO)c(O)c1 [CP 55,940]
- deep hyperalgesia incited by H/R (BERK mice): ameliorated
- hyperalgesia (BERK sickle mice; low dose 0.3 mg/kg): attenuated hyperalgesia

SMILES: CN1CC[C@]23c4c5ccc(O)c4O[C@H]2[C@@H](O)C=C[C@H]3[C@H]1C5 [morphine]
- hyperalgesia (BERK sickle mice; high dose 20 mg/kg, 20 mg/kg): effective; also recorded: markedly attenuated
